Columns and labels:
[1] = tested on: KIT and its downstream effector the prenyl-binding protein PDE6D; experiment: NanoBRET live cell target engagement, KIT and PDE6D; assay type: cell-based
pT367 EZH2 and pT71 ATF2 = conditions: MYC-CTNNB1 organoids; WNTinib 1 μM, sorafenib 10 μM, SB202190 10 μM; 48 hours time course
Protocol: Tumor organoids were grown in 24 well plates and were collected in Cell Recovery Solution (Corning) after drug treatment. Tumor organoids were left to rotate at 4° C. for one hour in order to dissolve the Matrigel. Tumor organoids were spun down at 300 g at 4° C. for 5 minutes. Pellets were lysed in 2× Laemmli buffer (+4% 2-mercaptoethanol) by heating at 95° C. for 10 minutes followed by 5 seconds of sonication. SDS-PAGE was run using standard procedures.

[2] = tested on: MYC-Tp53 tumor organoid allografts; experiment: MYC-Tp53 tumor organoid allografts; assay type: in vivo, C57BL/6J mice; conditions: 30 mg/kg daily oral gavage
Protocol: 300,000 cells per allograft were prepared in 8 mg/mL Matrigel. 6-8-week-old C57BL/6J mice were shaved the day prior to injection. A 26^5/8-gauge needle was used to implant organoids into the flank in 100 μL Matrigel. Tumor allografts were measured daily with calipers, and upon an average volumetric measurement of 100 mm^3, animals were randomized and drug dosing was started. Drugs were dosed daily at 30 mg/kg via oral gavage. Tumor allografts were also measured daily.
MYC-CTNNB1 tumor organoids were engrafted into C57BL/6 mice and treatment was started when tumor volume reached 100 mm^3.

SMILES: CNC(=O)c1cc(Oc2ccc(NC(=O)Nc3ccc(C(F)(C(F)(F)F)C(F)(F)F)cc3)c(F)c2)ccn1 [8-50-2, 4-(3-fluoro-4-(3-(4-(perfluoropropan-2-yl)phenyl)ureido)phenoxy)-N-methylpicolinamide]
- binding on KIT and PDE6D, comparison of WNTinib with 8-50-2 [1]: significant differences in binding

SMILES: Oc1ccc(-c2nc(-c3ccncc3)c(-c3ccc(F)cc3)[nH]2)cc1 [SB202190]
- temporal inhibition of pT367 EZH2 and pT71 ATF2 (pT367 EZH2 and pT71 ATF2): transient inhibition

SMILES: COc1cc2nccc(Oc3ccc(NC(=O)NC4CC4)c(Cl)c3)c2cc1C(N)=O [lenvatinib]
- activity in MYC-Tp53 allografts [2]: better activity

SMILES: CNC(=O)c1cc(Oc2ccc(NC(=O)Nc3ccc(Cl)c(C(F)(F)F)c3)c(F)c2)ccn1 [regorafenib]
- activity in MYC-Tp53 allografts [2]: better activity

Source: patent US20230404985A1, “METHODS OF TREATING TUMORS AND CANCERS HAVING DYSREGULATED WNT SIGNALING PATHWAYS” (ICAHN SCHOOL OF MEDICINE AT MOUNT SINAI, priority 2020, published 2023)
